Here are results for 21 compounds from patent US12583866B2, “Pyrido[2,3-b][1,4]oxazines or tetrahydropyrido[2,3-b][1,4]oxazepines as IAP antagonists” (BEIGENE, LTD., priority 2020, dated 2026).

Experiment [1] deals with T1, recombinant human cIAP1-BIR3 protein (Homo sapiens, UniProt Q13490).
T1 construct: recombinant human cIAP1-BIR3 protein; purchased Reaction biology APT-11-370
Put plainly: Recombinant human c-IAP1-BIR3 biochemical assay (HTRF, peptide displacement). The following applies: 1.2 nM cIAP1-BIR3, 3 nM AbuRPF-K(5-Fam)-NH2 peptide, read-out: Protein binding IC50 (nM) c-IAP1. The gist of the method: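 HTRF peptide displacement: after 1 h compound pre-incubation (max 10 uM, 4-fold dilutions, 10 points) with 1.2 nM protein in HEPES pH 7.5 buffer, 3 nM 5-Fam-labelled AbuRPF-K peptide and Tb-anti-6His were each added for 1 h at room temperature. Inhibition taken from 520/490 nm ratio, fitted four-parameter logistic for IC50.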

Experiment [2] concerns the target T2, recombinant human cIAP2-BIR3 protein (Homo sapiens, UniProt Q13489).
T2 construct: recombinant human cIAP2-BIR3 protein; purchased Reaction biology APT-11-372
In words: Recombinant human c-IAP2-BIR3 biochemical assay (HTRF, peptide displacement). The following applies: 3.7 nM cIAP2-BIR3, 3.7 nM AbuRPF-K(5-Fam)-NH2 peptide, read-out: Protein binding IC50 (nM) c-IAP2. Put shortly: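 HTRF peptide-displacement readout (ex337, em520/490 ratio) after sequential 1 h room-temperature steps: compound with 3.7 nM protein, then 3.7 nM 5-Fam-labelled AbuRPF peptide, then Tb-cryptate anti-6His antibody. Buffer pH 7.5 HEPES with NaCl, Tween-20, DTT; 10-point 4-fold dilutions from 10 uM; four-parameter logistic IC50.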
For orientation: Time-resolved FRET reads energy transfer from a long-lived donor to a nearby acceptor.

Experiment [3] has as its target T3, recombinant human XIAP-BIR3 protein (Homo sapiens, UniProt P98170).
T3 construct: recombinant human XIAP-BIR3 protein; purchased Reaction biology APT-11-374
Put plainly: Recombinant human XIAP-BIR3 biochemical assay (HTRF, peptide displacement). The following applies: 3.7 nM XIAP-BIR3, 7.6 nM AbuRPF-K(5-Fam)-NH2 peptide, read-out: Protein binding IC50 (nM) XIAP. Put shortly: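 HTRF peptide displacement with 7.6 nM 5-Fam-labelled AbuRPF peptide, anti-6His Tb donor and 3.7 nM recombinant XIAP-BIR3. Protein and compound (10-point, 4-fold from 10 µM) were preincubated 1 h RT in HEPES pH 7.5 buffer before each addition, each 1 h. IC50 by four-parameter fit of the 520/490 nm ratio.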

Structures are written as SMILES.

T3 sequence (P98170 241-356 limits assumed): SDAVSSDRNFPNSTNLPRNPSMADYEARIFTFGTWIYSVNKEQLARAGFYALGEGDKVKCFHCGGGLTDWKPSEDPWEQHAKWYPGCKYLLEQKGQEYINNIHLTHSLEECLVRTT
T1 sequence (Q13490 253-363 limits assumed): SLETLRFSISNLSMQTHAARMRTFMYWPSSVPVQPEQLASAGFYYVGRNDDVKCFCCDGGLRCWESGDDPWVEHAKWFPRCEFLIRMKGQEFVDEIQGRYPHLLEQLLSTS
T2 sequence (Q13489 238-349 limits assumed): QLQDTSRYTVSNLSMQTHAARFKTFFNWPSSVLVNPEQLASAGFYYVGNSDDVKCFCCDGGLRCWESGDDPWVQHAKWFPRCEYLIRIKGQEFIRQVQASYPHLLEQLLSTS

As to `C[C@@H]1CN(CC(=O)N2c3cc(Cc4ccc(F)cc4)c(NCCO)nc3OC[C@@H]2C)[C@@H](CN2[C@H](C)COC[C@H]2C)CN1` [Compound 109], the figures for the IC50 in experiment [1], in experiment [2] and in experiment [3] were 0.24 nM, 0.45 nM and 10.3 nM, respectively.

With `C[C@@H]1CN(CC(=O)N2c3cc(Cc4ccc(F)cc4)c(NC4CC4)nc3OC[C@@H]2C)[C@@H](CN2[C@H](C)COC[C@H]2C)CN1` [Compound 110], the values for the IC50 in experiment [1], in experiment [2] and in experiment [3] were 0.36 nM, 0.75 nM and 11.9 nM, respectively.

`CCNc1nc2c(cc1Cc1ccc(F)cc1)N(C(=O)CN1C[C@@H](C)NC[C@@H]1CN1[C@H](C)COC[C@H]1C)[C@@H](C)CO2` [Compound 111, 2-((2R,5R)-2-(((3R,5R)-3,5-dimethylmorpholino)methyl)-5-methylpiperazin-1-yl)-1-((S)-6-(ethylamino)-7-(4-fluorobenzyl)-2-methyl-2,3-dihydro-1H-pyrido[2,3-b][1,4]oxazin-1-yl)ethan-1-one]: the figures for the IC50 in experiment [1], in experiment [2] and in experiment [3] were 0.25 nM, 0.7 nM and 13.9 nM, respectively.

For the compound `C[C@@H]1CN(CC(=O)N2c3cc(Cc4ccc(F)cc4)c(NCC(F)(F)F)nc3OC[C@@H]2C)[C@@H](CN2[C@H](C)COC[C@H]2C)CN1` [Compound 112, 2-((2R,5R)-2-(((3R,5R)-3,5-dimethylmorpholino)methyl)-5-methylpiperazin-1-yl)-1-((S)-7-(4-fluorobenzyl)-2-methyl-6-((2,2,2-trifluoroethyl)amino)-2,3-dihydro-1H-pyrido[2,3-b][1,4]oxazin-1-yl)ethan-1-one], the IC50 in experiment [1] turned out to be 0.34 nM; in experiment [2], 0.63 nM; in experiment [3], 4.6 nM.

Turning to `C[C@@H]1CN(CC(=O)N2c3cc(Cc4ccc(F)cc4)c(-c4ccc(F)cc4)nc3OC[C@@H]2C)[C@@H](CN2[C@H](C)COC[C@H]2C)CN1` [Compound 113], the half-inhibitory concentration (IC50) in experiment [1] amounted to 0.25 nM; in experiment [2] it was 0.36 nM; in experiment [3], 5.4 nM.

On to `C[C@@H]1CN(CC(=O)N2c3cc(Cc4ccc(F)cc4)c(CN4CC(O)C4)nc3OC[C@@H]2C)[C@@H](CN2[C@H](C)COC[C@H]2C)CN1` [Compound 114], for which the IC50 in experiment [1] came to 0.19 nM; in experiment [2], 0.36 nM; in experiment [3], 7.7 nM.

Consider `C[C@@H]1CN(CC(=O)N2c3cc(Cc4ccc(F)cc4)c(N)nc3OC[C@@H]2C)[C@@H](CN2[C@H](C)COC[C@H]2C)CN1` [Compound 115, 1-((S)-6-amino-7-(4-fluorobenzyl)-2-methyl-2,3-dihydro-1H-pyrido[2,3-b][1,4]oxazin-1-yl)-2-((2R,5R)-2-(((3R,5R)-3,5-dimethylmorpholino)methyl)-5-methylpiperazin-1-yl)ethan-1-one], for which the IC50 turned out to be 0.17 nM in experiment [1], 0.28 nM in experiment [2] and 6.9 nM in experiment [3].

In the case of `CC(=O)Nc1nc2c(cc1Cc1ccc(F)cc1)N(C(=O)CN1C[C@@H](C)NC[C@@H]1CN1[C@H](C)COC[C@H]1C)[C@@H](C)CO2` [Compound 116], the IC50 is 0.16 nM in experiment [1], 0.24 nM in experiment [2] and 4.3 nM in experiment [3].

As for `CCC(=O)Nc1nc2c(cc1Cc1ccc(F)cc1)N(C(=O)CN1C[C@@H](C)NC[C@@H]1CN1[C@H](C)COC[C@H]1C)[C@@H](C)CO2` [Compound 117], the IC50 was found to be 0.15 nM in experiment [1], 0.23 nM in experiment [2] and 6.5 nM in experiment [3].

Regarding `CC(C)C(=O)Nc1nc2c(cc1Cc1ccc(F)cc1)N(C(=O)CN1C[C@@H](C)NC[C@@H]1CN1[C@H](C)COC[C@H]1C)[C@@H](C)CO2` [Compound 118, N—((S)-1-(2-((2R,5R)-2-(((3R,5R)-3,5-dimethylmorpholino)methyl)-5-methylpiperazin-1-yl)acetyl)-7-(4-fluorobenzyl)-2-methyl-2,3-dihydro-1H-pyrido[2,3-b][1,4]oxazin-6-yl)isobutyramide], the values for the IC50 in experiment [1], in experiment [2] and in experiment [3] were 0.16 nM, 0.19 nM and 4.8 nM, respectively.

With `C[C@@H]1CN(CC(=O)N2c3cc(Cc4ccc(F)cc4)c(NC(=O)C4CC4)nc3OC[C@@H]2C)[C@@H](CN2[C@H](C)COC[C@H]2C)CN1` [Compound 119, N—((S)-1-(2-((2R,5R)-2-(((3R,5R)-3,5-dimethylmorpholino)methyl)-5-methylpiperazin-1-yl)acetyl)-7-(4-fluorobenzyl)-2-methyl-2,3-dihydro-1H-pyrido[2,3-b][1,4]oxazin-6-yl)cyclopropanecarboxamide], the IC50 in experiment [1] was determined as 0.2 nM; in experiment [2], 0.35 nM; in experiment [3], 4.4 nM.

Regarding `C[C@@H]1CN(CC(=O)N2c3cc(Cc4ccc(F)cc4)c(C(=O)NC(C)(C)C)nc3OC[C@@H]2C)[C@@H](CN2[C@H](C)COC[C@H]2C)CN1` [Compound 120], the IC50 in experiment [1] came to 0.24 nM; in experiment [2], 0.39 nM; in experiment [3], 6.8 nM.

For `COCCC(=O)Nc1nc2c(cc1Cc1ccc(F)cc1)N(C(=O)CN1C[C@@H](C)NC[C@@H]1CN1[C@H](C)COC[C@H]1C)[C@@H](C)CO2` [Compound 121], the results for the IC50 in experiment [1], in experiment [2] and in experiment [3] were 0.2 nM, 0.27 nM and 4.2 nM, respectively.

In the case of `CCS(=O)(=O)Nc1nc2c(cc1Cc1ccc(F)cc1)N(C(=O)CN1C[C@@H](C)NC[C@@H]1CN1[C@H](C)COC[C@H]1C)[C@@H](C)CO2` [Compound 122], the IC50 in experiment [1] amounted to 0.19 nM; in experiment [2] it was 0.29 nM; in experiment [3] it was 2.9 nM.

As to `C[C@@H]1CN(CC(=O)N2c3cc(Cc4ccc(F)cc4)c(NS(=O)(=O)C4CC4)nc3OC[C@@H]2C)[C@@H](CN2[C@H](C)COC[C@H]2C)CN1` [Compound 123, N—((S)-1-(2-((2R,5R)-2-(((3R,5R)-3,5-dimethylmorpholino)methyl)-5-methylpiperazin-1-yl)acetyl)-7-(4-fluorobenzyl)-2-methyl-2,3-dihydro-1H-pyrido[2,3-b][1,4]oxazin-6-yl)cyclopropanesulfonamide], the IC50 was found to be 0.2 nM in experiment [1], 0.35 nM in experiment [2] and 4.4 nM in experiment [3].

As to `C[C@@H]1CN(CC(=O)N2c3cc(Cc4ccc(F)cc4F)c(CO)nc3OC[C@@H]2C)[C@@H](CN2[C@H](C)COC[C@H]2C)CN1` [Example 60, 1-((S)-7-(2,4-difluorobenzyl)-6-(hydroxymethyl)-2-methyl-2,3-dihydro-1H-pyrido[2,3-b][1,4]oxazin-1-yl)-2-((2R,5R)-2-(((3R,5R)-3,5-dimethylmorpholino)methyl)-5-methylpiperazin-1-yl)ethan-1-one], the values for the IC50 in experiment [1], in experiment [2] and in experiment [3] were 0.13 nM, 0.34 nM and 7.5 nM, respectively.

`C[C@@H]1CN(CC(=O)N2c3cc(Cc4ccc(F)cc4)c(C(N)=O)nc3OC[C@@H]2C)[C@@H](CN2CCOCC2(C)C)CN1` [Example 61, (S)-1-(2-((2R,5R)-2-((3,3-dimethylmorpholino)methyl)-5-methylpiperazin-1-yl)acetyl)-7-(4-fluorobenzyl)-2-methyl-2,3-dihydro-1H-pyrido[2,3-b][1,4]oxazine-6-carboxamide]: the values for the IC50 in experiment [1], in experiment [2] and in experiment [3] were 0.43 nM, 1.08 nM and 14 nM, respectively.

With `CC(C)OC[C@@H]1COCCN1C[C@H]1CN[C@H](C)CN1CC(=O)N1c2cc(Cc3ccc(F)cc3)c(C(N)=O)nc2OC[C@@H]1C` [Example 62, (S)-7-(4-fluorobenzyl)-1-(2-((2R,5R)-2-(((S)-3-(isopropoxymethyl)morpholino)methyl)-5-methylpiperazin-1-yl)acetyl)-2-methyl-2,3-dihydro-1H-pyrido[2,3-b][1,4]oxazine-6-carboxamide], the IC50 stood at 0.33 nM in experiment [1], 0.73 nM in experiment [2] and 8.1 nM in experiment [3].

As for `C[C@@H]1CN(CC(=O)N2c3cc(Cc4ccc(F)cc4)c(C(=O)NC4CC4)nc3OC[C@@H]2C)[C@@H](CN2[C@H](C)COC[C@H]2C)CN1` [Example 63], the figures for the 50% inhibitory concentration (IC50) in experiment [1], in experiment [2] and in experiment [3] were 0.17 nM, 0.23 nM and 3.2 nM, respectively.

Regarding `C[C@@H]1CN(CC(=O)N2c3cc(Cc4ccc(F)cc4)c(C(=O)NCC(F)(F)F)nc3OC[C@@H]2C)[C@@H](CN2[C@H](C)COC[C@H]2C)CN1` [Example 64], the IC50 in experiment [1] stood at 0.25 nM; in experiment [2], 0.29 nM; in experiment [3], 2.3 nM.

As for `CCNC(=O)c1nc2c(cc1Cc1ccc(F)cc1)N(C(=O)CN1C[C@@H](C)NC[C@@H]1CN1[C@H](C)COC[C@H]1C)[C@@H](C)CO2` [Example 65, (S)-1-(2-((2R,5R)-2-(((3R,5R)-3,5-dimethylmorpholino)methyl)-5-methylpiperazin-1-yl)acetyl)-N-ethyl-7-(4-fluorobenzyl)-2-methyl-2,3-dihydro-1H-pyrido[2,3-b][1,4]oxazine-6-carboxamide], the IC50 in experiment [1] amounted to 0.22 nM; in experiment [2], 0.44 nM; in experiment [3], 4.4 nM.

By IC50 is commonly meant the concentration at which inhibition is half-maximal.
